{
  "source": "patent US9872875B2",
  "about": "“Component and method for treating viral disease” (Institut Pasteur of Shanghai, Chinese Academy of Sciences, priority 2012, dated 2018)",
  "key": {"[1]": {"test_system": "EV71 clinical isolate EV71 FY573", "test": "Time of E02 addition assay, EV71 in RD cells", "format": "cell-based, Enterovirus 71", "conditions": "32 μM of E02, MOI 10, 18 h", "procedure": "RD cells in 96-well plates were infected with MOI 10 EV71 clinical isolate EV71 FY573. In three periods at prior to, during, and post infection, 32 μM of E02 (dissolved in DMEM) or DMEM were added, EV71 replication was measured to determine the stage, in which E02 inhibits EV71 infection. Steps are detailed as follows:\n(1) Cell seeding: 24 h prior to infection, RD cells were seeded in 96-well cell culture plates, 5×10^4 cells per well;\n(2) Cells pre-incubated with drug: cell culture medium was removed from 96-well plates, each well was added 100 μl of DMEM, and then added 11 μl of 320 μM E02 solution (cell group treated with drug) or 11 μl of DMEM (cell group without drug treatment), incubated at 37° C. for 1 h.\n(3) Virus pre-incubated with drug: virus stock solution was diluted to 5×10^6 TCID50/ml with DMEM, dispensed to 96-well plates at 100 μl per well, and 11 μl of 320 μM E02 solution (B and C groups) or 11 μl of DMEM (A and F groups) were added, and incubated at 37° C. for 1 h.\n(4) Infection: After cells and virus were incubated for one hour, drug was discarded from cell culture plates. 111 μl of pre-incubated virus with drug (B and C groups) or DMEM (A and F groups) was transferred to cell culture plates. After 100 μl of virus solution was transferred to D and E groups, 11 μl of 320 μM E02 was added, and incubated at 37° C. for 1 h.\n(5) One hour after viral infection of cells, virus and drug mixture was discarded from cell culture plates. Cells were washed twice with 50 μl of DMEM. 180 μl per well of DMEM containing 2% FBS, 20 μl of 320 μM E02 solution (B, E, and F groups) or 20 μl of DMEM (A, C, and D groups) were added. […]\n(7) Viral load determination: EV71 5′UTR gene was detected using ABI Taqman one-step RT-PCR kit (ABI taqMan® One-Step RT-PCR, Cat #4309169) in ABI 7900HT 384-well plates PCR system. […]\n(8) PCR standard curves were used to convert CT values of PCR to viral load (standard curves were obtained by CT values determined by performing RT-PCR on RNA extracted from viruses with defined titers at 10-fold serial dilutions). […]"}, "[2]": {"test_system": "EV71 clinical isolate SH-TS", "test": "EV71 SH-TS replication in RD cells, quantitative RT-PCR", "format": "cell-based, Enterovirus 71", "conditions": "MOI 0.1, 46 h", "procedure": "(§1) RD cells were infected with EV71 SH-TS or SH-RS at different E02 concentrations, at the MOI of 0.1. After cultured for 46 h, viral RNA in culture supernatant was extracted. Relative EV71 viral load was determined by quantitative RT-PCR. See Example 1 for specific procedures of quantitative RT-PCR."}, "[3]": {"test_system": "Coxsackie virus A16 (CVA16)", "test": "Coxsackie virus A16 TCID50 in RD cells", "format": "cell-based", "text": "Coxsackie virus A16 in 10-fold serial dilutions were used to infect RD cells at different E02 concentrations. After cultured for 2 days, CPE was observed under optical microscope, and stained with crystal violet, to calculate 50% tissue culture infective dose. Specific procedures were the same as the TCID50 testing method of Example 1."}, "[4]": {"test_system": "EV71 clinical isolate SH-RS", "test": "EV71 SH-RS replication in RD cells, quantitative RT-PCR", "format": "cell-based, Enterovirus 71", "conditions": "MOI 0.1, 46 h", "procedure": "as §1"}, "[5]": {"test": "Toxicity in ICR newborn mice", "format": "in vivo", "conditions": "50 mg/kg or 20 mg/kg intraperitoneally daily for 4 consecutive days", "procedure": "Three-day-old ICR mice were injected intraperitoneally and daily with 50 μl of E02 at a dose of 50 mg/kg, 20 mg/kg, or 50 μl of DMEM for 4 consecutive days."}, "[6]": {"test_system": "EV71 clinical isolate SH-TS", "test": "EV71 SH-TS PFU in RD cells", "format": "cell-based, Enterovirus 71", "conditions": "Enterovirus A, 168 h, 5~7 days, read-out: EC50 to reduce EV71 SH-TS PFU in RD cells", "procedure": "RD cells cultured in 12-well plates were infected with EV71 SH-TS or SH-RS at different E02 concentrations. After cultured for 5˜7 days, cells were stained and plaque-forming units were calculated. Same procedure is as detailed in “3. E02 reduces EV71 plaque forming units in RD cells” of Example 1."}},
  "data": [
    {"smiles": "Cc1ccc(C(=O)Nc2ccc(S(=O)(=O)O)c3cc(S(=O)(=O)O)cc(S(=O)(=O)O)c23)cc1NC(=O)c1cccc(NC(=O)Nc2cccc(C(=O)Nc3cc(C(=O)Nc4ccc(S(=O)(=O)O)c5cc(S(=O)(=O)O)cc(S(=O)(=O)O)c45)ccc3C)c2)c1", "note": "[E02, Suramin Sodium]", "values": [
      {"measurement": "inhibition of EV71 infection, E02 added after infection (F)", "setting": "[1]", "value": "could not inhibit EV71 infection"},
      {"measurement": "inhibition of EV71 infection, E02 added during infection (D, E)", "setting": "[1]", "value": "can inhibit EV71 infection"},
      {"measurement": "inhibition of EV71 infection, E02 added prior to infection (B, C)", "setting": "[1]", "value": "can inhibit EV71 infection"},
      {"measurement": "concentration reducing EV71 replication by 10-fold", "setting": "[2]", "value": 7.14, "unit": "μM"},
      {"measurement": "concentration reducing EV71 replication by 100-fold", "setting": "[2]", "value": 25.35, "unit": "µM"},
      {"measurement": "effect on CVA16 TCID50 in RD cells", "setting": "[3]; 10 μM of E02", "value": "CVA16 TCID50 reduction"},
      {"measurement": "CVA16 titer in RD cells", "setting": "[3]; 25 μM of E02, reduced from 1×10^9 TCID50/ml, 2 days", "value": "1×10^4 TCID50/ml"},
      {"measurement": "concentration reducing EV71 replication by 10-fold", "setting": "[4]", "value": 4.41, "unit": "μM"},
      {"measurement": "concentration reducing EV71 replication by 1000-fold", "setting": "[4]", "value": 16.29, "unit": "µM"},
      {"measurement": "toxicity in three-day-old ICR mice", "setting": "[5]", "value": "No toxicity was observed"},
      {"measurement": "EC50", "setting": "[6]", "value": 2240, "unit": "nM"}
    ]}
  ]
}
